In patent US20080188528A1, “Modulators of C3a receptor and methods of use thereof” (priority 2006, published 2008):
Counter-ions that a name gives are not always drawn.

These compounds were tested against T1, human C3a receptor (C3aR) (Homo sapiens, UniProt Q16581) (assay: Inhibition of human [125I]-C3a binding to human C3a receptor (SPA, membranes of HEK293 cells expressing recombinant C3aR)). Conditions: 0.1 nM [125I]-C3a, 3 hours at room temperature; Table 4.
T1 construct: expressed in transfected cells
T1 sequence (Q16581 1-482): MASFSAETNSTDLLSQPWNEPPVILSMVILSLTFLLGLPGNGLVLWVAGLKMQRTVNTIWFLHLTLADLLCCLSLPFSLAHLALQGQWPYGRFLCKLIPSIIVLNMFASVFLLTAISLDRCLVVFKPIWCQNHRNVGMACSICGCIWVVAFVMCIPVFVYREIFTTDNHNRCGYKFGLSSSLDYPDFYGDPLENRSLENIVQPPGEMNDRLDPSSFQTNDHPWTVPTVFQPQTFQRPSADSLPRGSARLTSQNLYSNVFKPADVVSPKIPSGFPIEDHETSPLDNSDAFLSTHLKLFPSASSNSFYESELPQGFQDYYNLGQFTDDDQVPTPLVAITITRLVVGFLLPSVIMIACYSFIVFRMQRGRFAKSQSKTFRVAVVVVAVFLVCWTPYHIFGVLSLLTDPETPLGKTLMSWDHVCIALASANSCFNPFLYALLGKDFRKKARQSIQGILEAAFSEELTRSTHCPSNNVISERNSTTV
Procedure, shortened: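 HEK293 C3aR membranes were pre-coupled to WGA SPA beads and incubated 3 h at room temperature with 0.1 nM [125I]-C3a in HEPES pH 7.4 buffer containing 0.25% BSA and 0.2% CHAPS, DMSO ≤1%. Nonspecific binding was defined with 1 μM unlabeled C3a. IC50 came from nonlinear least-squares fitting.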

IC50 [nM]	Structure (SMILES)
50 to 500	Cc1c(C)c(S(=O)(=O)NC(=N)NCCC[C@H](NC(=O)c2cccn(CC(c3ccccc3)c3ccccc3)c2=O)C(=O)O)c(C)c2c1OC(C)(C)CC2 [Compound 79, (2S)-2-({[1-(2,2-diphenylethyl)-2-oxo-1,2-dihydropyridin-3-yl]carbonyl}amino)-5-{[(2,2,5,7,8-pentamethyl-3,4-dihydro-2H-chromen-6-yl)sulfonyl]carbamimidamido}pentanoic acid•TFA]
< 50	COC(=O)[C@H](CCCNC(=N)N)NC(=O)c1cccn(C(c2ccccc2)c2ccccc2)c1=O [Compound 80, methyl (2S)-5-carbamimidamido-2-({[1-(diphenylmethyl)-2-oxo-1,2-dihydropyridin-3-yl]carbonyl}amino)pentanoate]
500 to 20000	N=C(N)NCCC[C@H](NC(=O)c1cccn(C(c2ccccc2)c2ccccc2)c1=O)C(N)=O [Compound 81, N-[(1S)-4-carbamimidamido-1-carbamoylbutyl]-1-(diphenylmethyl)-2-oxo-1,2-dihydropyridine-3-carboxamide-TFA]
50 to 500	CCOC(=O)N=C(NCCC[C@H](NC(=O)c1cccn(C(c2ccccc2)c2ccccc2)c1=O)C(=O)O)NC(C)C [Compound 82, (2S)-2-({[1-(diphenylmethyl)-2-oxo-1,2-dihydropyridin-3-yl]carbonyl}amino)-5-{[{(ethoxycarbonyl)amino}(isopropylamino)methylene]amino}pentanoic acid]
500 to 20000	CCOC(=O)N=C(N)NCCC[C@H](NC(=O)c1cccn(C(c2ccccc2)c2ccccc2)c1=O)C(=O)O [Compound 83, (2S)-2-({[1-(diphenylmethyl)-2-oxo-1,2-dihydropyridin-3-yl]carbonyl}amino)-5-[(ethoxycarbonyl)carbamimidamido]pentanoic acid]

Same assay, conditions: 0.1 nM [125I]-C3a, 3 hours at room temperature; Table 5

IC50 [nM]	Structure (SMILES)
500 to 20000	Cc1cc(Cc2ccccc2)c(=O)n(CC(=O)N[C@@H](CCCNC(=N)N)C(=O)O)c1 [Compound 84, (2S)-2-{[(3-benzyl-5-methyl-2-oxopyridin-1(2H)-yl)acetyl]amino}-5-carbamimidamidopentanoic acid•TFA]
50 to 500	O=C(N[C@@H](Cc1c[nH]cn1)C(=O)O)c1cccn(C(c2ccccc2)c2ccccc2)c1=O [Compound 85, (2S)-2-({[1-(diphenylmethyl)-2-oxo-1,2-dihydropyridin-3-yl]carbonyl}amino)-3-(1H-imidazol-4-yl)propanoic acid•TFA]

Same assay, conditions: 0.1 nM [125I]-C3a, 3 hours at room temperature; Table 6

IC50 [nM]	Structure (SMILES)
< 50	CC(=N)NCCC[C@H](NC(=O)c1cccn(C(c2ccccc2)c2ccccc2)c1=O)C(=O)O [Compound 86, (2S)-2-({[1-(diphenylmethyl)-2-oxo-1,2-dihydropyridin-3-yl]carbonyl}amino)-5-(ethanimidoylamino)pentanoic acid•TFA]
< 50	N=C(N)NCCCC[C@H](NC(=O)c1cccn(C(c2ccccc2)c2ccccc2)c1=O)C(=O)O [Compound 87, (2S)-6-Carbamimidamido-2-({[1-(diphenylmethyl)-2-oxo-1,2-dihydropyridin-3-yl]carbonyl}amino)hexanoic acid]
50 to 500	CC(=N)NCCCC[C@H](NC(=O)c1cccn(C(c2ccccc2)c2ccccc2)c1=O)C(=O)O [Compound 88, (2S)-2-({[1-(diphenylmethyl)-2-oxo-1,2-dihydropyridin-3-yl]carbonyl}amino)-6-(ethanimidoylamino)hexanoic acid•TFA]
< 50	N=C(N)NCCC[C@@H](CC(=O)O)NC(=O)c1cccn(C(c2ccccc2)c2ccccc2)c1=O [Compound 89, (3S)-6-Carbamimidamido-3-({[1-(diphenylmethyl)-2-oxo-1,2-dihydropyridin-3-yl]carbonyl}amino)hexanoic acid]
< 50	CC(C)(C)Cn1cccc(C(=O)N[C@@H](CCCNC(=N)N)C(=O)O)c1=O [Compound 90, (2S)-5-carbamimidamido-2-({[1-(2,2-dimethylpropyl)-2-oxo-1,2-dihydropyridin-3-yl]carbonyl}amino)pentanoic acid•TFA]
50 to 500	CC(=O)NCCC[C@H](NC(=O)c1cccn(C(c2ccccc2)c2ccccc2)c1=O)C(=O)O [Compound 91, (2S)-5-(Acetylamino)-2-({[1-(diphenylmethyl)-2-oxo-1,2-dihydropyridin-3-yl]carbonyl}amino)pentanoic acid]
< 50	N/C(=N\O)NCCC[C@H](NC(=O)c1cccn(C(c2ccccc2)c2ccccc2)c1=O)C(=O)O [Compound 92, (2S)-2-({[1-(Diphenylmethyl)-2-oxo-1,2-dihydropyridin-3-yl]carbonyl}amino)-5-(hydroxycarb-amimidamido)pentanoicacid]
50 to 500	CC(C)/N=C(\NCCC[C@H](NC(=O)c1cccn(C(c2ccccc2)c2ccccc2)c1=O)C(=O)O)NC(C)C [Compound 93, (2S)-5-({Bis[(1-methylethyl)amino]methylidene}amino)-2-({[1-(diphenylmethyl)-2-oxo-1,2-dihydropyridin-3-yl]carbonyl}amino)pentanoic acid]
50 to 500	CC(=N)NCC[C@H](NC(=O)c1cccn(C(c2ccccc2)c2ccccc2)c1=O)C(=O)O [Compound 94, (2S)-2-({[1-(diphenylmethyl)-2-oxo-1,2-dihydropyridin-3-yl]carbonyl}amino)-4-(ethanimidoylamino)butanoic acid•TFA]
< 50	CCN(CC)CCC[C@H](NC(=O)c1cccn(C(c2ccccc2)c2ccccc2)c1=O)C(=O)O [Compound 95, (2S)-5-(Diethylamino)-2-({[1-(diphenylmethyl)-2-oxo-1,2-dihydropyridin-3-yl]carbonyl}amino)pentanoic acid]
< 50	N=C(CC(=O)O)NCCC[C@H](NC(=O)c1cccn(C(c2ccccc2)c2ccccc2)c1=O)C(=O)O [Compound 96, (2S)-5-[(2-carboxyethanimidoyl)amino]-2-({[1-(diphenylmethyl)-2-oxo-1,2-dihydropyridin-3-yl]carbonyl}amino)pentanoic acid•TFA]
< 50	N=C(N)NCCC[C@H](NC(=O)c1ccc(C(c2ccccc2)c2ccccc2)s1)C(=O)O [Compound 97, (2S)-5-Carbamimidamido-2-({[5-(diphenylmethyl)thiophen-2-yl]carbonyl}amino)pentanoic acid]
< 50	N=C(N)NCCC[C@H](NC(=O)c1ccc(C(O)(c2ccccc2)c2ccccc2)s1)C(=O)O [Compound 98, (2S)-5-Carbamimidamido-2-[({5-[hydroxy(diphenyl)methyl]thiophen-2-yl}carbonyl)amino]pentanoic acid]
< 50	N=C(N)NC(=O)CC[C@H](NC(=O)c1ccc(C(c2ccccc2)c2ccccc2)s1)C(=O)O [Compound 99, (2S)-5-Carbamimidamido-2-({[5-(diphenylmethyl)thiophen-2-yl]carbonyl}amino)-5-oxopentanoicacid]
500 to 20000	CC(=N)NCCC[C@H](NC(=O)c1cccn(Cc2ccccc2)c1=O)C(=O)O [Compound 100, (2S)-2-{[(1-benzyl-2-oxo-1,2-dihydropyridin-3-yl)carbonyl]amino}-5-(ethanimidoylamino)pentanoic acid•TFA]
50 to 500	CC(=N)NCCC[C@H](NC(=O)c1cccn(Cc2cccc(Cl)c2)c1=O)C(=O)O [Compound 101, (2S)-2-({[1-(3-chlorobenzyl)-2-oxo-1,2-dihydropyridin-3-yl]carbonyl}amino)-5-(ethanimidoylamino)pentanoic acid•TFA]
50 to 500	CC(=N)NCCC[C@H](NC(=O)c1ccc(C(c2ccccc2)c2ccccc2)o1)C(=O)O [Compound 102, (2S)-2-({[5-(Diphenylmethyl)furan-2-yl]carbonyl}amino)-5-(ethanimidoylamino)pentanoic acid]
50 to 500	CC(=N)NCCC[C@H](NC(=O)c1ccc(C(c2ccccc2)c2ccccc2)s1)C(=O)O [Compound 103, (2S)-2-({[5-(diphenylmethyl)thiophen-2-yl]carbonyl}amino)-5-(ethanimidoylamino)pentanoic acid•TFA]
500 to 20000	CC(=N)NCCC[C@H](NC(=O)c1cccn(Cc2ccccc2Cl)c1=O)C(=O)O [Compound 104, (2S)-2-({[1-(2-chlorobenzyl)-2-oxo-1,2-dihydropyridin-3-yl]carbonyl}amino)-5-(ethanimidoylamino)pentanoic acid•TFA]
50 to 500	O=C(N[C@@H](Cc1c[nH]c2ccccc12)C(=O)O)c1cccn(C(c2ccccc2)c2ccccc2)c1=O [Compound 105, (2S)-2-({[1-(Diphenylmethyl)-2-oxo-1,2-dihydropyridin-3-yl]carbonyl}amino)-3-(1H-indol-3-yl)propanoicacid]
50 to 500	CC(=N)NCCC[C@H](NC(=O)c1cccn(Cc2cccc(C(F)(F)F)c2)c1=O)C(=O)O [Compound 106, (2S)-5-(ethanimidoylamino)-2-[({2-oxo-1-[3-(trifluoromethyl)benzyl]-1,2-dihydropyridin-3-yl}carbonyl)amino]pentanoic acid•TFA]
500 to 20000	CC(=N)NCCC[C@H](NC(=O)c1cccn(Cc2ccccc2C(F)(F)F)c1=O)C(=O)O [Compound 107, (2S)-5-(ethanimidoylamino)-2-[({2-oxo-1-[2-(trifluoromethyl)benzyl]-1,2-dihydropyridin-3-yl}carbonyl)amino]pentanoic acid•TFA]
